# Measurements as given in patent US20070049599A1, “Use of bh4 for the treatment of respiratory diseases” (Altana Pharma AG, priority 2003, published 2007).
# Legend:
# human iNOS [1] = molecular target: T1, human iNOS (Homo sapiens, UniProt P35228); assay: Superoxide production from recombinant BH4-free and arginine-free human iNOS (ESR, CPH spin trap); format: biochemical; design: made in house; host or cells: E. coli; details: incubation with arginine alone, FIG. 3b
# Description: Recombinant human iNOS was overexpressed in E. coli and purified using an ADP sepharose column and subsequently a Superdex column to yield BH4free and arginine-free iNOS. 1 μg of human iNOS was incubated together with 200 μM NADPH and 1 mM CPH. After incubation at 37° C. for 60 min the superoxide produced was measured as stable CPH radical in a Bruker e-scan device via electron spin resonance spectroscopy (ESR).
# [2] = tested on: EA.hy926 endothelial cells; assay: Conversion of BH4 derivatives into BH4 by endothelial cells (intracellular biopterin content by HPLC); format: cell-based; details: 100 μM, FIG. 1
# Description: Endothelial cells (HUVEC and ERhy926) were cultivated in the appropriate culture medium and treated with sepiapterin and BH4 (100 μM each) respectively, for the indicated time periods. After excess wash steps using PBS the cells were lysed and the biopterin content was analysed by reversed phase HPLC with fluorescence detection (excitation: 350 nm, emission: 450 nm) after iodine reduction and semi-purification on Dowex beads as described in detail in Hesslinger et al., J. Biol. Chem. 273, 21616-21622, 1998.
# human iNOS [3] = molecular target: T1, human iNOS; assay: Promotion of NO synthesis in DAHP-pretreated HEK293iNOS cells (Griess assay); format: cell-based; details: HEK293iNOS cells pretreated with 10 mM DAHP, increasing concentrations, concentration-dependent, FIG. 2
# Description: HEK293 cells stably transfected with human iNOS under the transcriptional control of a PonA-inducible promoter were treated with 10 mM DAHP (diaminohydroxypyridin), an inhibitor of GTP cyclohydrolase (Xie et al., J. Biol. Chem. 273, 21091-21098, 1998), to block endogenous production of tetrahydrobiopterin. After stimulating iNOS expression with […] PonA for 24 h and concomitant treatment with 10 mM DAHP increasing concentrations of BH4 or sepiapterin were added and the NO production was measured using the Griess assay to analyse the stable NO products nitrite and nitrate. Nitrate was reduced to nitrite by nitrate reductase and its absorption was determined at 544 nm in a Wallac spectrophotometer.
"NO synthesis from iNOS (nitrite/nitrate, Griess assay) (human iNOS [3])",Compound,reduction of superoxide production (human iNOS [1]),conversion of exogenous compound into intracellular biopterin [2]
,N=C(N)NCCC[C@H](N)C(=O)O [arginine],50%,
promoted NO synthesis,C[C@H](O)C(=O)C1=Nc2c(nc(N)[nH]c2=O)NC1 [sepiapterin],,effectively converted into intracellular biopterin within a few minutes
